{
  "source": "patent US20170211035A1",
  "about": "“BIOLOGICAL INDICATORS” (American Sterilizer Company, priority 2016, published 2017)",
  "system": "Geobacillus stearothermophilus spores",
  "assay": "Steam resistance of biological indicators in the BIER vessel (kill kinetics, log population versus time)",
  "assay_type": "cell-based",
  "experimental": "In the following examples, the test organism is prepared using a standard lot of Geobacillus stearothermophilus spores suspended in an aqueous carbohydrate solution. In these examples, xylose and dextrose are used as the carbohydrates. Comparative examples are also provided wherein the carbohydrate is not used. In each case, the aqueous suspension is placed in a vial and allowed to dry. The resulting biological indicators are resistance tested. The tests show an unexpected decrease in resistance when the biological indicators are derived from a carbohydrate solution as compared to when no carbohydrate is used.\nIn these examples, the biological indicators are tested for resistance to steam sterilization using the biological indicator evaluation resistor (BIER) vessel depicted in FIG. 5A. Referring to FIG. 5A, BIER vessel 300 includes chamber 310, door 320, and interior shelf 330 for placement of the biological indicators. Steam, heat and pressure enters chamber 310 as indicated by arrow 340. Vent 350 is provided for the rapid release of steam, heat and pressure. Operation is controlled by a computerized processor, sensors, and valves designed to introduce rapid changes to the environment within the chamber 310.\nReferring to FIG. 5B, the process cycle used in the BIER vessel includes six phases, these phases being numbered as phases 1-6 in FIG. 5B. These phases can be described as follows:\nThe term “log population” refers to the log of the number of colony-forming units (cfu) of viable spores in the test sample. For example, a log population of 6 refers to 10^6 (or 1,000,000) viable colony-forming units of spores in the test sample.",
  "data": [
    {"smiles": "O=C[C@H](O)[C@@H](O)[C@H](O)CO", "note": "[xylose]", "values": [
      {"measurement": "resistance (time)", "setting": "steam at 121° C., spores dried from suspension in 0.5M carbohydrate solution", "value": "approximately 4 minutes"},
      {"measurement": "time for a 6 log reduction (kill kinetics)", "setting": "steam at 121° C., spores dried from suspension in 1.67 M xylose solution", "value": "approximately 5 minutes"},
      {"measurement": "resistance (time)", "setting": "steam at 132° C., spores dried from suspension in xylose solution as in Example 1 (1.67 M)", "value": "approximately 1.5 minutes"}
    ]}
  ]
}
